These results are taken from patent US10196364B2, “Pyrimidine carboxamides as sodium channel blockers” (Purdue Pharma L.P., priority 2013, dated 2019).

Some results are limits rather than exact numbers.

The target in the first assay is human Nav1.7 (Homo sapiens, UniProt Q15858). The assay can be described thus: FLIPR sodium dye assay (CoroNa Green AM Na+ dye, primary fluorescence assay) in recombinant Nav1.7/HEK293 cells. Format: cell-based.
human Nav1.7, sequence (Q15858 1-1977 isoform Q15858-3): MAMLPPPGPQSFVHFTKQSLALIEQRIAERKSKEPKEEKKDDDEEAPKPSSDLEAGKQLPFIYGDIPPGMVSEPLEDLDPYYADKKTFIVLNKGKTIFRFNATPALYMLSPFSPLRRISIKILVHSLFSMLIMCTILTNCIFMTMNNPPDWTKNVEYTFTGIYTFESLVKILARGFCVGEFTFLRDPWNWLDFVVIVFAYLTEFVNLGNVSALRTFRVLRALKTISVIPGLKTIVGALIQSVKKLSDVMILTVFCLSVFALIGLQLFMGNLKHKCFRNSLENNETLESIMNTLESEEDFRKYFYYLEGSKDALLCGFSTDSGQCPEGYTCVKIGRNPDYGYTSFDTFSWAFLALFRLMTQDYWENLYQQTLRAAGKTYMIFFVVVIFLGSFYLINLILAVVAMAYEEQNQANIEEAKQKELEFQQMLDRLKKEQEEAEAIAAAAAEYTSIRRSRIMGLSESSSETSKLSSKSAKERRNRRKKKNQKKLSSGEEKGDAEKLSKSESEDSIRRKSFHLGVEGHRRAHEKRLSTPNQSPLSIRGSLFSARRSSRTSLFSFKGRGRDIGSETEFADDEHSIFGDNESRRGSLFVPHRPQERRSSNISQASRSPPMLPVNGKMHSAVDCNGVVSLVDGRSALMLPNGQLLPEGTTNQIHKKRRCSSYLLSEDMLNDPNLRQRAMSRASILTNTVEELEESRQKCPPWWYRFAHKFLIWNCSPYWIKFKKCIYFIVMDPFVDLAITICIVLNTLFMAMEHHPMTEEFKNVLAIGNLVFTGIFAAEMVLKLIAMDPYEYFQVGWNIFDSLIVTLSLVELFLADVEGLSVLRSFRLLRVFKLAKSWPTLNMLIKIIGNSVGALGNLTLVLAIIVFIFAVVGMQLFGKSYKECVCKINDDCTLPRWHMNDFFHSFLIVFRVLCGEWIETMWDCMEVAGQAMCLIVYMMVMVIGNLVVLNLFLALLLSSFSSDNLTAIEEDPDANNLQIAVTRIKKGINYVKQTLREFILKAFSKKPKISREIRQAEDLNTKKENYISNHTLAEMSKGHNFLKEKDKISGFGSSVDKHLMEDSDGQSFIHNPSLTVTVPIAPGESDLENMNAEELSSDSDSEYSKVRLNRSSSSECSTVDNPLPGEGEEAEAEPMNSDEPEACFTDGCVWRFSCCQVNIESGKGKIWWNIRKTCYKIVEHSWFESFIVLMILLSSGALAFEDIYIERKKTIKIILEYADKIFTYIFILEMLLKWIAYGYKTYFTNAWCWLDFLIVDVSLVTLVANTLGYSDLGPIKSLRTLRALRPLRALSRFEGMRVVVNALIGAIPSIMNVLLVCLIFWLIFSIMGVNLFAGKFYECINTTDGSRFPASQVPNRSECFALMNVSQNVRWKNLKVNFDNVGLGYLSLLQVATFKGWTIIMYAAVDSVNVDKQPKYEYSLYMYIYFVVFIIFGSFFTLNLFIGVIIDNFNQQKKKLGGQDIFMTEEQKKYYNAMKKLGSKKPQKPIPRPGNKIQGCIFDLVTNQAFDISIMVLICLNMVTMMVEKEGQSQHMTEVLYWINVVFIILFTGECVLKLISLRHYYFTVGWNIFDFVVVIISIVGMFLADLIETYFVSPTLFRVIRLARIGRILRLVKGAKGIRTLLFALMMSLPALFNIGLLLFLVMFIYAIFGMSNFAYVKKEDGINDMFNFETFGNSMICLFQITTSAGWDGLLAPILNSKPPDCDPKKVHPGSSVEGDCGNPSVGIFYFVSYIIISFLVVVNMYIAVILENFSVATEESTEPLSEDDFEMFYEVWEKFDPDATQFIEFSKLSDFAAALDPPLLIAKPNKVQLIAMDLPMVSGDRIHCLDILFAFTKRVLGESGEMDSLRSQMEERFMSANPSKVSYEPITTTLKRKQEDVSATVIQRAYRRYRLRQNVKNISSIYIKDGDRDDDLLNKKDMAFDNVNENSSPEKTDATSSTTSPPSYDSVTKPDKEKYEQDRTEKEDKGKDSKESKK
Conditions: not given
For `NC(=O)c1cc(N[C@@H]2CCNC2=O)nc(-c2ccc(Oc3ccc(C(F)(F)F)cn3)cc2)n1` [compound 149, (R)-6-((2-oxopyrrolidin-3-yl)amino)-2-(4-((5-(trifluoromethyl)pyridin-2-yl)oxy)phenyl)pyrimidine-4-carboxamide], the IC50 was found to be 0.32 µM.

The assay is the same for the next values; noted with them: Table 6; CoroNa Green AM Na+ dye primary fluorescence assay; read-out: Nav1.7 Activity (μM) FLIPR assay IC50.
For `C[C@H](Nc1cc(C(N)=O)nc(Oc2ccc(F)cc2)n1)C(N)=O` [compound 104, (S)-6-((1-amino-1-oxopropan-2-yl)amino)-2-(4-fluorophenoxy)pyrimidine-4-carboxamide], the IC50 was over 20 µM.

As to `CN1CCN(Cc2cc(C(F)(F)F)ccc2Oc2ccc(-c3nc(N[C@H]4CCNC4=O)cc(C(N)=O)n3)cc2)CC1` [Cpd No. 193], the IC50 is over 20 µM. Same read-out and setting: with `NC(=O)c1cc(O[C@H](C(N)=O)C(O)CO)nc(-c2ccc(Oc3ccc(C(F)(F)F)cc3)cc2)n1` (stereo partly drawn) [compound 124, 6-(((2S)-1-amino-3,4-dihydroxy-1-oxobutan-2-yl)oxy)-2-(4-(4-(trifluoromethyl)phenoxy)phenyl)pyrimidine-4-carboxamide] the figure was 0.7 µM. Consider `CC(C)N1CCN(c2cc(C(N)=O)nc(-c3ccc(Oc4ccc(F)cc4)cc3)n2)C(C(N)=O)C1` (centres unmarked) [compound 112, 6-(2-carbamoyl-4-isopropylpiperazin-1-yl)-2-(4-(4-fluorophenoxy)phenyl)pyrimidine-4-carboxamide], for which the IC50 is 0.38 µM. Consider `NC(=O)c1cc(O[C@H]2CCN(C[C@H](O)CO)C2=O)nc(-c2ccc(Oc3ccc(F)cc3)cc2)n1` [compound 123, 6-(((S)-1-((S)-2,3-dihydroxypropyl)-2-oxopyrrolidin-3-yl)oxy)-2-(4-(4-fluorophenoxy)phenyl)pyrimidine-4-carboxamide], for which the IC50 is 0.67 µM.

With `C[C@H](Nc1cc(C(N)=O)nc(-c2cc(F)c(OCc3ccccc3)cc2F)n1)C(N)=O` [compound 105, (S)-6-((1-amino-1-oxopropan-2-yl)amino)-2-(4-(benzyloxy)-2,5-difluorophenyl)pyrimidine-4-carboxamide], the IC50 was over 20 µM. For `NC(=O)c1cc(N[C@H]2CCNC2=O)nc(-c2ccc(C(=O)c3ccc(C(F)(F)F)cn3)cc2)n1` [compound 162, (S)-6-((2-oxopyrrolidin-3-yl)amino)-2-(4-(5-(trifluoromethyl)picolinoyl)phenyl)pyrimidine-4-carboxamide], the IC50 stood at 1.9 µM. On the same count and under the same terms, with `C[C@H](Nc1cc(C(N)=O)nc(-c2ccc(Oc3ccc(C(C)(C)C)cc3)cc2)n1)C(N)=O` [compound 171, (S)-6-((1-amino-1-oxopropan-2-yl)amino)-2-(4-(4-(tert-butyl)phenoxy)phenyl)pyrimidine-4-carboxamide] the figure was 0.25 µM. With `NC(=O)c1cc(N[C@H]2CCNC2=O)nc(C2CCC(Oc3ccc(C(F)(F)F)cn3)CC2)n1` (stereo partly drawn) [Cpd No. 214, (S)-6-((2-oxopyrrolidin-3-yl)amino)-2-(4-((5-(trifluoromethyl)pyridin-2-yl)oxy)cyclohexyl)pyrimnidine-4-carboxamide], the IC50 was found to be 0.93 µM. With `NC(=O)c1cc(N[C@H]2CCNC2=O)nc(-c2ccc(Oc3ccc(F)cc3)cc2CN2CCC2)n1` [compound 167, (S)-2-(2-(azetidin-1-ylmethyl)-4-(4-fluorophenoxy)phenyl)-6-((2-oxopyrrolidin-3-yl)amino)pyrimidine-4-carboxamide], the IC50 was over 20 µM. Regarding `NC(=O)c1cc(N[C@H]2CCNC2=O)nc(Oc2ccc(Oc3ccc(C(F)(F)F)cn3)cc2)n1` [compound 166, (S)-6-((2-oxopyrrolidin-3-yl)amino)-2-(4-((5-(trifluoromethyl)pyridin-2-yl)oxy)phenoxy)pyrimidine-4-carboxamide], the IC50 amounted to 3.9 µM.

Turning to `NC(=O)c1cc(O[C@H]2CCNC2=O)nc(-c2ccc(Oc3ccc(F)cc3)cc2)n1` [compound 118, (S)-2-(4-(4-fluorophenoxy)phenyl)-6-((2-oxopyrrolidin-3-yl)oxy)pyrimidine-4-carboxamide], the IC50 is 0.35 µM. For `C[C@H](Nc1cc(C(N)=O)nc(N2CC3CC2CN3c2ccc(F)cc2)n1)C(N)=O` (stereo partly drawn) [compound 106, 6-(((S)-1-amino-1-oxopropan-2-yl)amino)-2-(5-(4-fluorophenyl)-2,5-diazabicyclo[2.2.1]heptan-2-yl)pyrimidine-4-carboxamide], the half-maximal inhibitory concentration (IC50) was in the range of 10 to 20 µM. For `NC(=O)c1cc(N[C@H]2CCNC2=O)nc(-c2ccc(Nc3ccc(F)cc3)c(N)c2)n1` [Cpd No. 212, (S)-2-(3-amino-4-((4-fluoro-phenyl)amino)phenyl)-6-((2-oxopyrrolidin-3-yl)amino)-pyrimidine-4-carboxamide], the IC50 amounted to 4.73 µM.

Turning to `NC(=O)c1cc(N[C@H]2CCNC2=O)nc(-c2ccc(Oc3cnc(C(F)(F)F)cn3)cc2)n1` [compound 141, (S)-6-((2-oxopyrrolidin-3-yl)amino)-2-(4-((5-(trifluoromethyl)pyrazin-2-yl)oxy)phenyl)pyrimidine-4-carboxamide], the IC50 was found to be 0.74 µM. Still for that read-out and setting: as for `C[C@H](Oc1cc(C(N)=O)nc(-c2ccc(Oc3ccc(C(F)(F)F)cn3)cc2)n1)C(=O)NCCN1CCCC1` [compound 147, (S)-6-((1-oxo-1-((2-(pyrrolidin-1-yl)ethyl)amino)propan-2-yl)oxy)-2-(4-((5-(trifluoromethyl)pyridin-2-yl)oxy)phenyl)pyrimidine-4-carboxamide], the figure is 0.54 µM; as for `C[C@@H](Nc1cc(C(N)=O)nc(-c2ccc(Oc3ccc(C(C)(C)C)cc3)cc2)n1)C(N)=O` [compound 110, (R)-6-((1-amino-1-oxopropan-2-yl)amino)-2-(4-(4-(tert-butyl)phenoxy)phenyl)pyrimidine-4-carboxamide], 0.2 µM.

Consider `NC(=O)c1cc(N[C@H]2CCNC2=O)nc(N2C3CCC2CC(Oc2ccc(C(F)(F)F)cc2-c2cccnc2)C3)n1` (some centres unmarked) [compound 156], for which the IC50 amounted to 1.77 µM. Same read-out and setting: as for `NC(=O)c1cc(N[C@H]2CCNC2=O)nc(-c2ccc(Oc3ccc(C(F)(F)F)cc3CN3CCC3)cc2)n1` [compound 168, (S)-2-(4-(2-(azetidin-1-ylmethyl)-4-(trifluoromethyl)phenoxy)phenyl)-6-((2-oxopyrrolidin-3-yl)amino)pyrimidine-4-carboxamide], the figure is 1.73 µM.

Turning to `CN1CCN(Cc2cc(Oc3ccc(C(F)(F)F)cc3)ccc2-c2nc(N[C@H]3CCNC3=O)cc(C(N)=O)n2)CC1` [Cpd No. 203, (S)-2-(2-((4-methylpiperazin-1-yl)methyl)-4-(4-(trifluoro-methyl)phenoxy)-phenyl)-6-((2-oxopyrrolidin-3-yl)amino)-pyrimidine-4-carboxamide], the IC50 was 0.76 µM. In the case of `NC(=O)c1cc(N2CCC[C@H]2C(N)=O)nc(-c2ccc(Oc3ccc(OC(F)(F)F)cc3)cc2)n1` [compound 125, (S)-6-(2-carbamoylpyrrolidin-1-yl)-2-(4-(4-(trifluoromethoxy)phenoxy)phenyl)pyrimnidine-4-carboxamide], the IC50 was 0.28 µM. As to `NC(=O)c1cc(N[C@H]2CCNC2=O)nc(-c2ccc(Oc3ccc(F)cc3)cc2CNC2CC2)n1` [compound 163, (S)-2-(2-((cyclopropylamino)methyl)-4-(4-fluorophenoxy)phenyl)-6-((2-oxopyrrolidin-3-yl)amino)pyrimidine-4-carboxamide], the IC50 was 1.43 µM. Take `N#Cc1cc(C(F)(F)F)ccc1O[C@H]1C[C@H]2CC[C@@H](C1)N2c1nc(N[C@H]2CCNC2=O)cc(C(N)=O)n1` [Cpd No. 204, 2-((1R,3S,5S)-3-(2-cyano-4-(trifluoromethyl)phenoxy)-8-azabicyclo-[3.2.1]octan-8-yl)-6-(((S)-2-oxopyrrolidin-3-yl)amino)pyrimidine-4-carboxamide]: the IC50 is over 20 µM. In the case of `N#Cc1ccc(Oc2ccc(-c3nc(N[C@H]4CCNC4=O)cc(C(N)=O)n3)cc2)cc1` [compound 113, (S)-2-(4-(4-cyanophenoxy)phenyl)-6-((2-oxopyrrolidin-3-yl)amino)pyrimidine-4-carboxamide], the IC50 came out at 0.29 µM. Still for that read-out and setting: with `NC(=O)c1cc(N[C@H]2CCNC2=O)nc(-c2ccc(Oc3ccc(C(F)(F)F)cc3CN3CCOCC3)cc2)n1` [Cpd No. 192, (S)-2-(4-(2-(morpholinomethyl)-4-(trifluoromethyl)phenoxy)-phenyl)-6-((2-oxopyrrolidin-3-yl)amino)pyrimidine-4-carboxamide] the figure was 1.34 µM; with `NC(=O)c1cc(OCCN2CCCC2=O)nc(-c2ccc(Oc3ccc(C(F)(F)F)cc3)cc2)n1` [compound 119, 6-(2-(2-oxopyrrolidin-1-yl)ethoxy)-2-(4-(4-(trifluoromethyl)phenoxy)phenyl)pyrimidine-4-carboxamide], 0.12 µM. Regarding `CN1CCN(c2cc(C(F)(F)F)ccc2Oc2ccc(-c3nc(N[C@H]4CCNC4=O)cc(C(N)=O)n3)cc2)CC1` [Cpd No. 211, (S)-2-(4-(2-(4-methylpiperazin-1-yl)-4-(trifluoromethyl)-phenoxy)phenyl)-6-((2-oxopyrrolidin-3-yl)amino)-pyrimidine-4-carboxamide], the IC50 was 4.16 µM.

`NC(=O)c1cc(N[C@H]2CCNC2=O)nc(-c2ccc(Oc3cnc(C4CC4)cn3)cc2)n1` [compound 165, (S)-2-(4-((5-cyclopropylpyrazin-2-yl)oxy)phenyl)-6-((2-oxopyrrolidin-3-yl)amino)pyrimidine-4-carboxamide]: the IC50 turned out to be 1.19 µM.

Turning to `COc1ccc(CNc2cc(C(N)=O)nc(-c3ccc(Oc4ccc(F)cc4)cc3)n2)c(OC)c1` [Cpd No. 178, 6-((2,4-dimethoxybenzyl)amino)-2-(4-(4-fluorophenoxy)phenyl)-pyrimidine-4-carboxamide], the IC50 amounted to 1.74 µM. In the case of `NC(=O)c1cc(N[C@H]2CCNC2=O)nc(-c2ccc(C(O)c3ccc(C(F)(F)F)cn3)cc2)n1` (some centres unmarked) [Cpd No. 189], the IC50 is over 20 µM. Regarding `CN1CC=C(c2cc(C(F)(F)F)ccc2Oc2ccc(-c3nc(N[C@H]4CCNC4=O)cc(C(N)=O)n3)cc2)CC1` [Cpd No. 207, (S)-2-(4-(2-(1-methyl-1,2,3,6-tetrahydropyridin-4-yl)-4-(trifluoromethyl)phenoxy)phenyl)-6-((2-oxopyrrolidin-3-yl)amino)pyrimidine-4-carboxamide], the IC50 was determined as 4.7 µM.

As usually defined, the IC50 is the concentration needed to halve the response being measured.
